# Target: T1, h-cGAS (Homo sapiens, UniProt Q8N884)
# T1 construct: The final concentration of full-length h-cGAS, dsDNA, ATP, and GTP were 100 nM
# Experiment: cGAS biochemical assay, RapidFire 365 mass spectrometry (RF-MS)
# Details: full-length h-cGAS 100 nM, dsDNA 25 nM, ATP and GTP 100 μM, 7 h at RT
# T1 sequence (Q8N884 whole entry): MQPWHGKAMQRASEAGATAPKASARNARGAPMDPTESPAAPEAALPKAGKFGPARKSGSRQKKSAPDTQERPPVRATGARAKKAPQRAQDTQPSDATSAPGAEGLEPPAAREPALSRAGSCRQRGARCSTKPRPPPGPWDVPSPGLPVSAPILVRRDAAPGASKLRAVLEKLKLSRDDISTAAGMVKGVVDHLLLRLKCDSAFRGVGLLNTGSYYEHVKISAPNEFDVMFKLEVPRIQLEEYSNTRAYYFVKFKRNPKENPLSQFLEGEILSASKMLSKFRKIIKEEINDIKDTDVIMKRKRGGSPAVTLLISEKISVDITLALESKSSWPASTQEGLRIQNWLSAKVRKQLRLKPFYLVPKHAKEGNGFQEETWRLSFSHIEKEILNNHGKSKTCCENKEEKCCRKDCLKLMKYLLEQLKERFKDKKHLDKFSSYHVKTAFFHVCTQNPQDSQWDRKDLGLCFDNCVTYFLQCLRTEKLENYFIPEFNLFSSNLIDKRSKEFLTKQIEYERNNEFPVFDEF
row,Structure (SMILES),IC50
1,COCC(=O)N1CCc2[nH]c3c(Cl)cc(Cl)cc3c2C1 [TDI-004576],3080 nM
2,COCC(=O)N1CCc2c(c3cc(Cl)cc(Cl)c3n2C)C1 [TDI-004581],2410 nM
3,COCC(=O)N1CCc2c(c3cc(Cl)cc(Cl)c3n2CC(F)(F)F)C1 [TDI-005021],13900 nM
4,COCC(=O)N1CCc2[nH]c3c(Cl)cccc3c2C1 [TDI-005323],5860 nM
5,COCC(=O)N1CCc2[nH]c3cc(Cl)ccc3c2C1 [TDI-005324],4020 nM
6,COCC(=O)N1CCc2[nH]c3c(Cl)ccc(Cl)c3c2C1 [TDI-005325],3230 nM
7,CCOCC(=O)N1CCc2[nH]c3c(Cl)c(Cl)ccc3c2C1 [TDI-005716],1510 nM
8,COCCOCC(=O)N1CCc2[nH]c3c(Cl)c(Cl)ccc3c2C1 [TDI-005719],3290 nM
9,O=C(C1CCCO1)N1CCc2[nH]c3c(Cl)c(Cl)ccc3c2C1 (stereo not shown) [TDI-005745],3080 nM
10,COCC(=O)N1CCc2[nH]c3c(Br)c(Cl)ccc3c2C1 [TDI-005776],203 nM
11,COCC(=O)N1CCc2[nH]c3c(OC)c(Cl)ccc3c2C1 [TDI-005777],24700 nM
12,COCC(=O)N1CCc2[nH]c3cc(Br)ccc3c2C1 [TDI-005855],1740 nM
13,COCC(=O)N1CCc2[nH]c3c(Cl)c(C#N)ccc3c2C1 [TDI-006171],7690 nM
14,COCC(=O)N1CCc2[nH]c3c(C#N)c(Cl)ccc3c2C1 [TDI-006182],570 nM
15,O=C(CO)N1CCc2[nH]c3c(Cl)c(Cl)ccc3c2CC1 [TDI-006183],469 nM
16,Cc1ccc2c3c([nH]c2c1C)CCN(C(=O)CO)C3 [TDI-006339],7630 nM
17,Cc1ccc2c3c([nH]c2c1Cl)CCN(C(=O)CO)C3 [TDI-006358],597 nM
18,O=C(CO)N1CCc2[nH]c3c(Cl)c(F)ccc3c2C1 [TDI-006359],440 nM
19,Cc1c(Cl)ccc2c3c([nH]c12)CCN(C(=O)CO)C3 [TDI-006360],327 nM
20,C=Cc1ccc2c3c([nH]c2c1F)CCN(C(=O)CO)C3 [TDI-006923],19300 nM
21,N#Cc1c(Cl)ccc2c3c([nH]c12)CCN(C(=O)CO)C3 [TDI-006931],402 nM
22,N#Cc1ccc2c3c([nH]c2c1C#N)CCN(C(=O)CO)C3 [TDI-006932],> 25000 nM
23,O=C(CO)N1CCc2[nH]c3c(F)c(Cl)c(Br)cc3c2C1 [TDI-007362],591 nM
24,C#Cc1ccc2c3c([nH]c2c1F)CCN(C(=O)CO)C3 [TDI-007433],1450 nM
25,N#Cc1cc2c3c([nH]c2c(F)c1Cl)CCN(C(=O)CO)C3 [TDI-007542],1230 nM
26,CC1CN(C(=O)CO)Cc2c1[nH]c1c(Cl)c(Cl)ccc21 (stereo not shown) [TDI-007553],300 nM
27,O=C(CO)N1CCc2[nH]c3c(F)c(Cl)c(N4CCC4)cc3c2C1 [TDI-007560],6740 nM

row,Structure (SMILES),IC50
1,C[C@@H]1CN(C(=O)CO)Cc2c1[nH]c1c(Cl)c(Cl)ccc21 [TDI-007576],323 nM
2,N#Cc1cc(Cl)c(Cl)c2[nH]c3c(c12)CN(C(=O)CO)CC3 [TDI-007586],352 nM
3,Cn1c2c(c3c(-c4cn[nH]c4)cc(Cl)c(Cl)c31)CN(C(=O)CO)CC2 [TDI-007945],125 nM
4,COCC(=O)N1CCc2c(c3c(-c4cn[nH]c4)cc(Cl)c(Cl)c3n2C)C1 [TDI-008026],203 nM
5,COCC(=O)N1CCc2c(c3ccc(Br)c(F)c3n2C)C1 [TDI-008034],401 nM
6,Cn1c2c(c3ccc(Br)c(F)c31)CN(C(=O)CO)CC2 [TDI-008061],131 nM
7,CCn1c2c(c3ccc(Br)c(F)c31)CN(C(=O)CO)CC2 [TDI-008062],1030 nM
8,Cn1cccc1-c1cc(Cl)c(Cl)c2[nH]c3c(c12)CN(C(=O)CO)CC3 [TDI-008075],469 nM
9,Cc1[nH]ncc1-c1cc(Cl)c(Cl)c2[nH]c3c(c12)CN(C(=O)CO)CC3 [TDI-008076],11400 nM
10,O=C(CO)N1CCc2[nH]c3c(Cl)c(Cl)cc(C4=CCOCC4)c3c2C1 [TDI-008079],890 nM
11,Nc1ccccc1-c1cc(Cl)c(Cl)c2[nH]c3c(c12)CN(C(=O)CO)CC3 [TDI-008082],322 nM
12,O=C(CO)N1CCc2[nH]c3c(Cl)c(Cl)cc(-c4ccccc4O)c3c2C1 [TDI-008084],258 nM
13,Nc1ncccc1-c1cc(Cl)c(Cl)c2[nH]c3c(c12)CN(C(=O)CO)CC3 [TDI-008086],2050 nM
14,Cc1nn(C)cc1-c1cc(Cl)c(Cl)c2[nH]c3c(c12)CN(C(=O)CO)CC3 [TDI-008092],1840 nM
15,Cc1cc(-c2cc(Cl)c(Cl)c3[nH]c4c(c23)CN(C(=O)CO)CC4)nn1C [TDI-008093],330 nM
16,Cc1c(-c2cc(Cl)c(Cl)c3[nH]c4c(c23)CN(C(=O)CO)CC4)cnn1C [TDI-008094],371 nM
17,Cc1cc(-c2cc(Cl)c(Cl)c3[nH]c4c(c23)CN(C(=O)CO)CC4)n(C)n1 [TDI-008095],929 nM
18,Cc1noc(C)c1-c1cc(Cl)c(Cl)c2[nH]c3c(c12)CN(C(=O)CO)CC3 [TDI-008096],5950 nM
19,N#Cc1ncc(-c2cc(Cl)c(Cl)c3[nH]c4c(c23)CN(C(=O)CO)CC4)cn1 [TDI-008100],5270 nM
20,Cn1cc(-c2cc(Cl)c(Cl)c3[nH]c4c(c23)CN(C(=O)CO)CC4)ccc1=O [TDI-008108],552 nM
21,COc1cnccc1-c1cc(Cl)c(Cl)c2[nH]c3c(c12)CN(C(=O)CO)CC3 [TDI-008109],2330 nM
22,COc1ncccc1-c1cc(Cl)c(Cl)c2[nH]c3c(c12)CN(C(=O)CO)CC3 [TDI-008110],2970 nM
23,CNc1ncc(-c2cc(Cl)c(Cl)c3[nH]c4c(c23)CN(C(=O)CO)CC4)cn1 [TDI-008111],268 nM
24,Cc1nc(C)c(-c2cc(Cl)c(Cl)c3[nH]c4c(c23)CN(C(=O)CO)CC4)s1 [TDI-008113],962 nM
25,CN(C)c1cccc(-c2cc(Cl)c(Cl)c3[nH]c4c(c23)CN(C(=O)CO)CC4)c1 [TDI-008120],438 nM
26,CN(C)Cc1cc(Cl)c(Cl)c2[nH]c3c(c12)CN(C(=O)CO)CC3 [TDI-008437],350 nM

# Second part, the molecule after the results:
row,IC50,Structure (SMILES)
1,198 nM,COCC(=O)N1CCc2[nH]c3c(Cl)c(Br)ccc3c2C1 [TDI-005854]
2,140 nM,O=C(CO)N1CCc2[nH]c3c(Br)c(Cl)ccc3c2C1 [TDI-006261]
3,129 nM,O=C(CO)N1CCc2[nH]c3c(F)c(Cl)ccc3c2C1 [TDI-006340]
4,43 nM,O=C(CO)N1CCc2[nH]c3c(Cl)c(Br)ccc3c2C1 [TDI-006354]
5,201 nM,Cn1c2c(c3ccc(Cl)c(Cl)c31)CN(C(=O)CO)CC2 [TDI-006366]
6,31 nM,COc1cc2c3c([nH]c2c(Cl)c1Cl)CCN(C(=O)CO)C3 [TDI-006528]
7,39 nM,"O=C(CO)N1CCc2[nH]c3c(F)c(Br)ccc3c2C1 [TDI-006529, 1-(7-Bromo-6-fluoro-1,3,4,5-tetrahydro-2H-pyrido[4,3-b]indol-2-yl)-2-hydroxyethan-1-one]"
8,49 nM,COc1cc(Cl)c(Cl)c2[nH]c3c(c12)CN(C(=O)CO)CC3 [TDI-006622]
9,54.1 nM,O=C(CO)N1CCc2[nH]c3c(Cl)c(Cl)cc(-c4ccn[nH]4)c3c2C1 [TDI-007457]
10,166 nM,O=C(CO)N1CCc2[nH]c3c(F)c(Cl)c(F)cc3c2C1 [TDI-007544]
11,174 nM,C[C@H]1CN(C(=O)CO)Cc2c1[nH]c1c(Cl)c(Cl)ccc21 [TDI-007575]
12,84.8 nM,O=C(CO)N1CCc2[nH]c3c(Cl)c(Cl)cc(-c4ccoc4)c3c2C1 [TDI-008069]
13,97.5 nM,O=C(CO)N1CCc2[nH]c3c(Cl)c(Cl)cc(-c4ccncc4)c3c2C1 [TDI-008072]
14,31.8 nM,O=C(CO)N1CCc2[nH]c3c(Cl)c(Cl)cc(C4=CCCCO4)c3c2C1 [TDI-008078]
15,66.8 nM,O=C(CO)N1CCc2[nH]c3c(Cl)c(Cl)cc(-c4ccsc4)c3c2C1 [TDI-008080]
16,47.9 nM,O=C(CO)N1CCc2[nH]c3c(Cl)c(Cl)cc(-c4cccs4)c3c2C1 [TDI-008081]
17,20.3 nM,Nc1ccc(-c2cc(Cl)c(Cl)c3[nH]c4c(c23)CN(C(=O)CO)CC4)cc1 [TDI-008083]
18,30.9 nM,O=C(CO)N1CCc2[nH]c3c(Cl)c(Cl)cc(-c4cccc(O)c4)c3c2C1 [TDI-008085]

row,IC50,Structure (SMILES)
1,56.9 nM,Cc1ncc(-c2cc(Cl)c(Cl)c3[nH]c4c(c23)CN(C(=O)CO)CC4)cn1 [TDI-008088]
2,64.4 nM,O=C(CO)N1CCc2[nH]c3c(Cl)c(Cl)cc(-c4ccc(F)cc4)c3c2C1 [TDI-008089]
3,26.7 nM,O=C(CO)N1CCc2[nH]c3c(Cl)c(Cl)cc(-c4ccccc4F)c3c2C1 [TDI-008090]
4,31 nM,O=C(CO)N1CCc2[nH]c3c(Cl)c(Cl)cc(-c4cccc(F)c4)c3c2C1 [TDI-008091]
5,42.2 nM,N#Cc1ccccc1-c1cc(Cl)c(Cl)c2[nH]c3c(c12)CN(C(=O)CO)CC3 [TDI-008097]
6,85.3 nM,N#Cc1cccc(-c2cc(Cl)c(Cl)c3[nH]c4c(c23)CN(C(=O)CO)CC4)c1 [TDI-008098]
7,105 nM,CNc1ccc(-c2cc(Cl)c(Cl)c3[nH]c4c(c23)CN(C(=O)CO)CC4)cn1 [TDI-008101]
8,40.2 nM,COc1cccc(-c2cc(Cl)c(Cl)c3[nH]c4c(c23)CN(C(=O)CO)CC4)n1 [TDI-008102]
9,44.1 nM,COc1cccnc1-c1cc(Cl)c(Cl)c2[nH]c3c(c12)CN(C(=O)CO)CC3 [TDI-008103]
10,95.2 nM,COc1ccnc(-c2cc(Cl)c(Cl)c3[nH]c4c(c23)CN(C(=O)CO)CC4)c1 [TDI-008104]
11,107 nM,COc1ccc(-c2cc(Cl)c(Cl)c3[nH]c4c(c23)CN(C(=O)CO)CC4)nc1 [TDI-008105]
12,49.3 nM,COc1cc(-c2cc(Cl)c(Cl)c3[nH]c4c(c23)CN(C(=O)CO)CC4)ccn1 [TDI-008106]
13,52.4 nM,COc1cncc(-c2cc(Cl)c(Cl)c3[nH]c4c(c23)CN(C(=O)CO)CC4)c1 [TDI-008107]
14,201 nM,COc1ncc(-c2cc(Cl)c(Cl)c3[nH]c4c(c23)CN(C(=O)CO)CC4)cn1 [TDI-008112]
15,62.2 nM,COc1ncc(-c2cc(Cl)c(Cl)c3[nH]c4c(c23)CN(C(=O)CO)CC4)s1 [TDI-008114]
16,45.1 nM,O=C(CO)N1CCc2[nH]c3c(Cl)c(Cl)cc(-c4cnn(C(F)F)c4)c3c2C1 [TDI-008115]
17,76.8 nM,NC(=O)c1cccc(-c2cc(Cl)c(Cl)c3[nH]c4c(c23)CN(C(=O)CO)CC4)c1 [TDI-008118]
